How the values were obtained:
[1] = molecular target: Casein kinase I isoform alpha (Homo sapiens, UniProt P48729); experiment: CK1alpha(C1A1PHY1) Takeda global kinase panel
[2] = molecular target: B2 bradykinin receptor (Homo sapiens) (UniProt P30411); settings: Compound concentration 10.0 uM
[3] = molecular target: Serine/threonine-protein kinase RIO2 (Homo sapiens, UniProt Q9BVS4); experiment: RIOK2(RIO2LGF1) Takeda global kinase panel
[4] = molecular target: Estrogen receptor (Homo sapiens) (UniProt P03372); settings: Compound concentration 10.0 uM
[5] = molecular target: Mitogen-activated protein kinase 11 (Homo sapiens, UniProt Q15759); experiment: p38beta(MP11LGI1) Takeda global kinase panel
[6] = molecular target: Hormonally up-regulated neu tumor-associated kinase (Homo sapiens, UniProt P57058); experiment: HUNK(HUNKLGRN) Takeda global kinase panel
[7] = molecular target: Phosphatidylinositol 4,5-bisphosphate 3-kinase catalytic subunit alpha isoform (Homo sapiens, UniProt P42336); experiment: PI3KCA(PI3ACGR1) Takeda global kinase panel
[8] = molecular target: Serine/threonine-protein kinase D3 (Homo sapiens, UniProt O94806); experiment: PKD3(PRD3LGG5) Takeda global kinase panel
[9] = molecular target: Citron Rho-interacting kinase (Homo sapiens, UniProt O14578); experiment: CRIK(CIT1LGY1) Takeda global kinase panel
[10] = molecular target: Serine/threonine-protein kinase TAO2 (Homo sapiens, UniProt Q9UL54); experiment: TAO2(TAO2LGF1) Takeda global kinase panel
[11] = molecular target: Adenosine receptor A1 (Homo sapiens) (UniProt P30542); settings: Compound concentration 10.0 uM
[12] = molecular target: Tyrosine-protein kinase HCK (Homo sapiens, UniProt P08631); experiment: HCK(HCK1LGF1) Takeda global kinase panel
[13] = molecular target: Myosin light chain kinase 2, skeletal/cardiac muscle (Homo sapiens, UniProt Q9H1R3); experiment: skMLCK(MYL2LHY1) Takeda global kinase panel
[14] = molecular target: Vascular endothelial growth factor receptor 1 (Homo sapiens, UniProt P17948); experiment: FLT1(FLT1LGC5) Takeda global kinase panel
[15] = molecular target: Mitogen-activated protein kinase 9 (Homo sapiens, UniProt P45984); experiment: JNK2(MAP9LGF1) Takeda global kinase panel
[16] = molecular target: Vascular endothelial growth factor receptor 3 (Homo sapiens, UniProt P35916); experiment: FLT4(FLT4LGY1) Takeda global kinase panel
[17] = molecular target: Mitogen-activated protein kinase 8 (Homo sapiens, UniProt P45983); experiment: JNK1(MAP8LGF1) Takeda global kinase panel
Sequence of Mitogen-activated protein kinase 8 (P45983 whole entry): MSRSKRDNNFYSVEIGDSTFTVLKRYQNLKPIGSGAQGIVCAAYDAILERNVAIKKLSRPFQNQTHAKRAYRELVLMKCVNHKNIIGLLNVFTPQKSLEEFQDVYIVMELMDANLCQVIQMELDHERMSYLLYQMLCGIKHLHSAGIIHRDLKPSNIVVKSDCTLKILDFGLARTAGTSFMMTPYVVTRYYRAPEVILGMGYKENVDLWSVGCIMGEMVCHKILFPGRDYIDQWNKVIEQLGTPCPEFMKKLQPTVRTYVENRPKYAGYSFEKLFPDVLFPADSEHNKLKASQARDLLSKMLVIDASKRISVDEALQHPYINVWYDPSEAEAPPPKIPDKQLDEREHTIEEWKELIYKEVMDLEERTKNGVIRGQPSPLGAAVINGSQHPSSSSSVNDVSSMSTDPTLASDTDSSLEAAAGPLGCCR

[18] = molecular target: G protein-coupled receptor kinase 6 (Homo sapiens, UniProt P43250); experiment: GRK6(GRK6LGP1) Takeda global kinase panel
[19] = molecular target: Neuropeptide Y receptor type 2 (Homo sapiens) (UniProt P49146); experiment: Inhibition of Neuropeptide Y Y2 at 10 µM in the Eurofins-Panlabs radioligand binding assay (Eurofins_assay_257110); settings: Compound concentration 10.0 uM
Sequence of Neuropeptide Y receptor type 2 (Homo sapiens) (P49146 whole entry): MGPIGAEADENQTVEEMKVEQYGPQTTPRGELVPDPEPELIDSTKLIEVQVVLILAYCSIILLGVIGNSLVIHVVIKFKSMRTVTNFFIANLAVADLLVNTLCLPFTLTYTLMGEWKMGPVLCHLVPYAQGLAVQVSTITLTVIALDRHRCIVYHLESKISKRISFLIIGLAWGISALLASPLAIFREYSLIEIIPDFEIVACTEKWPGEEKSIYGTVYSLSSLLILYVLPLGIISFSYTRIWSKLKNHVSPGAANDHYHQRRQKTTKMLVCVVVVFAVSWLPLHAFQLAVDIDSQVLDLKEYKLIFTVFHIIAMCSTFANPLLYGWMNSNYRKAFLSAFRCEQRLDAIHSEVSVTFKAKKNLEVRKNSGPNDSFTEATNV

[20] = molecular target: Fibroblast growth factor receptor 4 (Homo sapiens, UniProt P22455); experiment: FGFR4(FGF4LGF1) Takeda global kinase panel
Sequence of Fibroblast growth factor receptor 4 (P22455 whole entry): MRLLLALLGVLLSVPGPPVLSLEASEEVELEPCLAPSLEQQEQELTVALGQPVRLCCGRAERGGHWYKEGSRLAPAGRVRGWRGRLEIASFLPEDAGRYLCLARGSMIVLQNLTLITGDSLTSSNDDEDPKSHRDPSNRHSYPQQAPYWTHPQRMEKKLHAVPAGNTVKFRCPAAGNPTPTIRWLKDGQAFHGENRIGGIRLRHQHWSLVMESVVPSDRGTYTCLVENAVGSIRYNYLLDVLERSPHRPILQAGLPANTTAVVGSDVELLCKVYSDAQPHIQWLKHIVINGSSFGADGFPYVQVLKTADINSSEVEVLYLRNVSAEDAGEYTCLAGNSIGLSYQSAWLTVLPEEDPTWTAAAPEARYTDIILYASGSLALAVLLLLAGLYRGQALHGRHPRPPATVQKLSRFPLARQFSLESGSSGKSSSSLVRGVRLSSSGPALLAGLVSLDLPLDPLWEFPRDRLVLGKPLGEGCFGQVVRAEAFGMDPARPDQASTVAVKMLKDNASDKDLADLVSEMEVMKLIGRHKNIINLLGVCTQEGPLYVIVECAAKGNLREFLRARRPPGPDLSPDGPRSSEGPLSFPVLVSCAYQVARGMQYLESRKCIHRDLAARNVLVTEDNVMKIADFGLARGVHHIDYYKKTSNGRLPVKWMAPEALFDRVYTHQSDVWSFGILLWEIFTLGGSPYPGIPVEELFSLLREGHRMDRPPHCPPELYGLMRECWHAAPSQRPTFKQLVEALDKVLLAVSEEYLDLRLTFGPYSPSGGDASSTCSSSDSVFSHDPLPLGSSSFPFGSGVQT

[21] = molecular target: Substance-P receptor (Homo sapiens) (UniProt P25103); experiment: Inhibition of Tachykinin NK1 at 10 µM in the Eurofins-Panlabs radioligand binding assay (Eurofins_assay_255520); set-up: ligand concentration 0.8 nM; settings: Compound concentration 10.0 uM
[22] = molecular target: Serine/threonine-protein kinase ULK2 (Homo sapiens, UniProt Q8IYT8); experiment: ULK2(ULK2LGY1) Takeda global kinase panel
[23] = molecular target: Protein kinase C eta type (Homo sapiens, UniProt P24723); experiment: PKCeta(PRKHLGRA) Takeda global kinase panel
[24] = molecular target: Epidermal growth factor receptor (Homo sapiens, UniProt P00533); experiment: Inhibition of Epidermal Growth Factor (EGF) at 10 µM in the Eurofins-Panlabs radioligand binding assay (Eurofins_assay_225510); settings: Compound concentration 10.0 uM
eIF-2-alpha kinase GCN2 = eIF-2-alpha kinase GCN2 (Homo sapiens, UniProt Q9P2K8); experiment: GCN2(EIK4PHK1) Takeda global kinase panel
[25] = molecular target: Non-receptor tyrosine-protein kinase TYK2 (Homo sapiens, UniProt P29597); experiment: Tyk2(TYK2LGF1) Takeda global kinase panel
[26] = molecular target: Serine/threonine-protein kinase Sgk2 (Homo sapiens, UniProt Q9HBY8); experiment: SGK2(SGK2LGE5) Takeda global kinase panel
Sequence of Serine/threonine-protein kinase Sgk2 (Q9HBY8 whole entry): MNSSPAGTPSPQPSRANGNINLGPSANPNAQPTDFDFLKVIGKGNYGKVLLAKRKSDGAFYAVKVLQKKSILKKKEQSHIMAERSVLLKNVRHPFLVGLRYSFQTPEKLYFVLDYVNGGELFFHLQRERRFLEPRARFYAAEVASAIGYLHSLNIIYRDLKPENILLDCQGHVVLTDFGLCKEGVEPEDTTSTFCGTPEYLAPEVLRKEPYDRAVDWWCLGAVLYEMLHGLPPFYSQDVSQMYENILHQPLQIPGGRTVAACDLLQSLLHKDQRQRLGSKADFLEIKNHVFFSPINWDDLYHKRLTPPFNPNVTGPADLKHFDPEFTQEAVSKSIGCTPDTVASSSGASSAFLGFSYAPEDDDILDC

[27] = molecular target: Serine/threonine-protein kinase Sgk3 (Homo sapiens, UniProt Q96BR1); experiment: SGK3(SGK3LGY1) Takeda global kinase panel
[28] = molecular target: Serine/threonine-protein kinase 26 (Homo sapiens, UniProt Q9P289); experiment: MST4(MST4LGC1) Takeda global kinase panel
[29] = molecular target: Protein kinase C zeta type (Homo sapiens, UniProt Q05513); experiment: PKCzeta(PRKZLGP1) Takeda global kinase panel
Sequence of Protein kinase C zeta type (Q05513 whole entry): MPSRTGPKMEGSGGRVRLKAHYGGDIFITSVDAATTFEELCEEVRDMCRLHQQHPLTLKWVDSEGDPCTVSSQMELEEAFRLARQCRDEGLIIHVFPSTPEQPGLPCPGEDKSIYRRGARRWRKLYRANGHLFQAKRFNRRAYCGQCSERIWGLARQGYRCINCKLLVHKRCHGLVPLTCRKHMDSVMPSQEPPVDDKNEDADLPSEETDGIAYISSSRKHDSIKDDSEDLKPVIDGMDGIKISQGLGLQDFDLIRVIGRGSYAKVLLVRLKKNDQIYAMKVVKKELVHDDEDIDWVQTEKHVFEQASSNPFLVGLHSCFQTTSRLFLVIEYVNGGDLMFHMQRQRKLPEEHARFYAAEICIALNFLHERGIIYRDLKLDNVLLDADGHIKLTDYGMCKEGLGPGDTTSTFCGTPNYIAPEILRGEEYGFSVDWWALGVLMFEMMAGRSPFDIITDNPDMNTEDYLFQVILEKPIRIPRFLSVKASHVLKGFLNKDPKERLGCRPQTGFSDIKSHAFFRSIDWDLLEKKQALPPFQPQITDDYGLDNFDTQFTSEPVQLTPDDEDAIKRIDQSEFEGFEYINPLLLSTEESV

Aurora kinase B = Aurora kinase B (Homo sapiens, UniProt Q96GD4); experiment: AurB [Aur1(AURBPGE1)] Takeda global kinase panel
Sequence of Aurora kinase B (Q96GD4 whole entry): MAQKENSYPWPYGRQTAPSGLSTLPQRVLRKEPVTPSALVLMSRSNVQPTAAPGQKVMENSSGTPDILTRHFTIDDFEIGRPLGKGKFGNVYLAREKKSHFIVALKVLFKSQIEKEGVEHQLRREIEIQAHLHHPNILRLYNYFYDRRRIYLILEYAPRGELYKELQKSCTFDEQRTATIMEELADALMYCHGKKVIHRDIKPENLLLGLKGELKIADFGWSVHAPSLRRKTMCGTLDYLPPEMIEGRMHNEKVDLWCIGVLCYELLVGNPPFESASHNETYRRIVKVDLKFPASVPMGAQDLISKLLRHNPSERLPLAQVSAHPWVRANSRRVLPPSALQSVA

[30] = molecular target: Serine/threonine-protein kinase OSR1 (Homo sapiens, UniProt O95747); experiment: OSR1(OXS1LGY1) Takeda global kinase panel
[31] = molecular target: Tyrosine-protein kinase receptor UFO (Homo sapiens, UniProt P30530); experiment: Axl(AXL1LGY1) Takeda global kinase panel
[32] = molecular target: Serine/threonine-protein kinase pim-2 (Homo sapiens, UniProt Q9P1W9); experiment: Pim2(PIM2LHY1) Takeda global kinase panel
[33] = molecular target: Serine/threonine-protein kinase Nek3 (Homo sapiens, UniProt P51956); experiment: Nek3(NEK3LGRI) Takeda global kinase panel
[34] = molecular target: Mast/stem cell growth factor receptor Kit (Homo sapiens, UniProt P10721); experiment: Kit(KIT1MGC1) Takeda global kinase panel
Sequence of Mast/stem cell growth factor receptor Kit (P10721 whole entry): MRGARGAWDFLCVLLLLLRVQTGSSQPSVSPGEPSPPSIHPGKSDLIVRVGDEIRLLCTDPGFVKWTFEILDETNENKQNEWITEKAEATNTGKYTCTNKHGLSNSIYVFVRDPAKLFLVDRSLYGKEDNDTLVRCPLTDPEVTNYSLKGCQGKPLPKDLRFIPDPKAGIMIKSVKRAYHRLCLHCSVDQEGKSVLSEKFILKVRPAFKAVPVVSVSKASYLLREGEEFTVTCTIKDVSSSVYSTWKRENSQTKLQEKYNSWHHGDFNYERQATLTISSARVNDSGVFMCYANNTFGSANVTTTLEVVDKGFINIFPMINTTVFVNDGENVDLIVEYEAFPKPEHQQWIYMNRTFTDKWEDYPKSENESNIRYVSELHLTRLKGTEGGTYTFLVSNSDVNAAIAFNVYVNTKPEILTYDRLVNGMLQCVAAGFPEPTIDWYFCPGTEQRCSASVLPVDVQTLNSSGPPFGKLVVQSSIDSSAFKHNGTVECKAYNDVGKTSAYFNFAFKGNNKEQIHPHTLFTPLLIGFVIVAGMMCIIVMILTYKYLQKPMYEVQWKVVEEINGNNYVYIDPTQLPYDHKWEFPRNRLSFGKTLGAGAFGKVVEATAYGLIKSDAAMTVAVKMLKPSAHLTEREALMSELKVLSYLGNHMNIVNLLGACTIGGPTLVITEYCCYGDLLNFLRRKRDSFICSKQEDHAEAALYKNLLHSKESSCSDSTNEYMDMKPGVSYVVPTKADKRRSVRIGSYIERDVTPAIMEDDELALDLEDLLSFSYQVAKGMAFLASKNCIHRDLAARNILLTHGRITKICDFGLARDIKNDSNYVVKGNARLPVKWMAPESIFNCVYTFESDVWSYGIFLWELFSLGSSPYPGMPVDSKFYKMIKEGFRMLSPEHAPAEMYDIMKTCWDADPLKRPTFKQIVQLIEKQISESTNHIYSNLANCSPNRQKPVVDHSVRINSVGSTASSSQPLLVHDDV

[35] = molecular target: Receptor-interacting serine/threonine-protein kinase 3 (Homo sapiens, UniProt Q9Y572); experiment: RIPK3(RIP3IGRI) Takeda global kinase panel
[36] = molecular target: Dual specificity tyrosine-phosphorylation-regulated kinase 1B (Homo sapiens, UniProt Q9Y463); experiment: DYRK1B(DY1BLHY1) Takeda global kinase panel
[37] = molecular target: Mitogen-activated protein kinase kinase kinase 13 (Homo sapiens, UniProt O43283); experiment: LZK(M313LGRJ) Takeda global kinase panel
Mus musculus = species on record: Mus musculus; experiment: Inhibition of Phorbol Ester at 10 µM in the Eurofins-Panlabs radioligand binding assay (Eurofins_assay_264500); set-up: ligand concentration 3 nM; settings: Compound concentration 10.0 uM
[38] = molecular target: Serine/threonine-protein kinase H1 (Homo sapiens, UniProt P11801); experiment: PSKH1(PSH1LGRH) Takeda global kinase panel
[39] = molecular target: Serine/threonine-protein kinase VRK1 (Homo sapiens, UniProt Q99986); experiment: VRK1(VRK1LGRI) Takeda global kinase panel
[40] = molecular target: Sodium-dependent noradrenaline transporter (Homo sapiens) (UniProt P23975); settings: Compound concentration 10.0 uM
Sequence of Sodium-dependent noradrenaline transporter (Homo sapiens) (P23975 whole entry): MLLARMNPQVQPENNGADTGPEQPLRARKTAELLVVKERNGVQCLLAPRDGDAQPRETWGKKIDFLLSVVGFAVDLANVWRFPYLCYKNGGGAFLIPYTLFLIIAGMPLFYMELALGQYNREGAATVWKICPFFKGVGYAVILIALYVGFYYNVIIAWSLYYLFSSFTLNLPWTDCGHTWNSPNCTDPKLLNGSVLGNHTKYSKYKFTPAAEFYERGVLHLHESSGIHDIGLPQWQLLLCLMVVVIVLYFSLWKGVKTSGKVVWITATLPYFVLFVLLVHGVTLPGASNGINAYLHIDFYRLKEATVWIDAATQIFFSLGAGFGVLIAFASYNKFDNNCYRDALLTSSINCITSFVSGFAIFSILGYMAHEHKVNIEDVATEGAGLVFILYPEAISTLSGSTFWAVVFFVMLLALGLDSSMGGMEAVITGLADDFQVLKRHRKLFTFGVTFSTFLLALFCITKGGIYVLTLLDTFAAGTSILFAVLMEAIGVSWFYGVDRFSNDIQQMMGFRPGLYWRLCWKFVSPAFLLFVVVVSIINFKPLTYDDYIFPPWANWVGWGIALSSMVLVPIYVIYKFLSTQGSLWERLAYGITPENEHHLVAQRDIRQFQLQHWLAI

Ephrin type-B receptor 3 = Ephrin type-B receptor 3 (Homo sapiens, UniProt P54753); experiment: EphB3(EPB3LGRJ) Takeda global kinase panel
[41] = molecular target: Activin receptor type-1-like (Homo sapiens, UniProt P37023); experiment: ALK1(ACL1LGF1) Takeda global kinase panel

Sequence of B2 bradykinin receptor (Homo sapiens) (P30411 whole entry): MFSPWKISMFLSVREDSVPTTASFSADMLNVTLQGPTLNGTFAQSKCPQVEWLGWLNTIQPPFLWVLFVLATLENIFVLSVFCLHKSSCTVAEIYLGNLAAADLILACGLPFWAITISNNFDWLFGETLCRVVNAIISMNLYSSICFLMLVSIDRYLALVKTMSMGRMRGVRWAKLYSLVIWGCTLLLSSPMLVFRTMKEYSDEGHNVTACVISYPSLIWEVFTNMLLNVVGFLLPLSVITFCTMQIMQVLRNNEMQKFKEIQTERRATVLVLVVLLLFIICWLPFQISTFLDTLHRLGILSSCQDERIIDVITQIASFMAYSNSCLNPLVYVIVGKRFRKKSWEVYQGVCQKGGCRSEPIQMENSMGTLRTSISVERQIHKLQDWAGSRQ

CN1C(=O)[C@@H](N2CCc3cn(Cc4ccccc4)nc3C2=O)COc2ccccc21 [TP-030-1]
IC50 [1]: 1000 nM | inhibition [2]: 4% | IC50 [3]: 1000 nM | inhibition [4]: 36% | IC50 [5]: 1000 nM | IC50 [6]: 1000 nM | IC50 [7]: 1000 nM | IC50 [8]: 1000 nM | IC50 [9]: 1000 nM | IC50 [10]: 1000 nM | inhibition [11]: 7% | IC50 [12]: 1000 nM | IC50 [13]: 1000 nM | IC50 [14]: 1000 nM | IC50 [15]: 1000 nM | IC50 [16]: 1000 nM | IC50 [17]: 1000 nM | IC50 [18]: 1000 nM | inhibition [19]: 2% | IC50 [20]: 1000 nM | inhibition [21]: 29% | IC50 [22]: 1000 nM | IC50 [23]: 1000 nM | inhibition [24]: -3% | IC50 (eIF-2-alpha kinase GCN2): 1000 nM | IC50 [25]: 1000 nM | IC50 [26]: 1000 nM | IC50 [27]: 1000 nM | IC50 [28]: 1000 nM | IC50 [29]: 1000 nM | IC50 (Aurora kinase B): 1000 nM | IC50 [30]: 1000 nM | IC50 [31]: 1000 nM | IC50 [32]: 1000 nM | IC50 [33]: 1000 nM | IC50 [34]: 1000 nM | IC50 [35]: 1000 nM | IC50 [36]: 1000 nM | IC50 [37]: 1000 nM | inhibition (Mus musculus): -3% | IC50 [38]: 1000 nM | IC50 [39]: 1000 nM | inhibition [40]: 15% | IC50 (Ephrin type-B receptor 3): 1000 nM | IC50 [41]: 1000 nM

CN1C(=O)[C@@H](N2CCc3cn(CC4CCS(=O)(=O)CC4)nc3C2=O)COc2ccccc21 [TP-030n]
IC50 [1]: 1000 nM | inhibition [2]: -4% | IC50 [3]: 1000 nM | inhibition [4]: 5% | IC50 [5]: 1000 nM | IC50 [6]: 1000 nM | IC50 [7]: 1000 nM | IC50 [8]: 1000 nM | IC50 [9]: 1000 nM | IC50 [10]: 1000 nM | inhibition [11]: -2% | IC50 [12]: 1000 nM | IC50 [13]: 1000 nM | IC50 [14]: 1000 nM | IC50 [15]: 1000 nM | IC50 [16]: 1000 nM | IC50 [17]: 1000 nM | IC50 [18]: 1000 nM | inhibition [19]: 1% | IC50 [20]: 1000 nM | inhibition [21]: 14% | IC50 [22]: 1000 nM | IC50 [23]: 1000 nM | inhibition [24]: 4% | IC50 (eIF-2-alpha kinase GCN2): 1000 nM | IC50 [25]: 1000 nM | IC50 [26]: 1000 nM | IC50 [27]: 1000 nM | IC50 [28]: 1000 nM | IC50 [29]: 1000 nM | IC50 (Aurora kinase B): 1000 nM | IC50 [30]: 1000 nM | IC50 [31]: 1000 nM | IC50 [32]: 1000 nM | IC50 [33]: 1000 nM | IC50 [34]: 1000 nM | IC50 [35]: 1000 nM | IC50 [36]: 1000 nM | IC50 [37]: 1000 nM | inhibition (Mus musculus): 7% | IC50 [38]: 1000 nM | IC50 [39]: 1000 nM | inhibition [40]: 3% | IC50 (Ephrin type-B receptor 3): 1000 nM | IC50 [41]: 1000 nM

Reference: ChEMBL document CHEMBL4507327 (2021)
